Data from PMC8625466 (Viruses, 2021).
Where two headings read alike, the source gives them in different places.

What was measured:
in vitro = conditions: hamster, Cytotoxicity (CC50)
FMDV = assay: organism not typed; format: cell-based, Foot-and-mouth-disease virus serotype A (NP05)
FMDV 3C^pro = FMDV 3C^pro (Foot-and-mouth disease virus, UniProt P03306); assay: cell-based
[1] = BHK-21, 0 h, read-out: Viral (EC50)
[2] = BHK-21, 2 h, read-out: Post-Viral (EC50)
[3] = BHK-21, read-out: Prophylaxis (EC50)
[4] = read-out: EC50 (low antiviral activities)

Sequence of FMDV 3C^pro (P03306 1650-1862 limits assumed): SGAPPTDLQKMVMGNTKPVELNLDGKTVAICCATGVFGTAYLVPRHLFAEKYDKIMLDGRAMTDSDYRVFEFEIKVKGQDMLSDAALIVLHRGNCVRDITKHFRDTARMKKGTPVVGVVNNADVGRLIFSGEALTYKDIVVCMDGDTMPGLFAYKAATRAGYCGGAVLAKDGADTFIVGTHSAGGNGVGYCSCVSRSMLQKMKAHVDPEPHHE

With `O=C(/C=C/c1ccc(O)cc1)OC[C@H]1O[C@@H](Oc2c(-c3ccc(O)cc3)oc3cc(O)cc(O)c3c2=O)[C@H](O)[C@@H](O)[C@@H]1O` [Tiliroside] the CC50 (in vitro) was > 100 µM.
`COc1cc(C2Oc3cc([C@H]4Oc5cc(O)cc(O)c5C(=O)[C@@H]4O)ccc3OC2CO)ccc1O` (stereo partly drawn) [Flavobin] showed a CC50 (in vitro) of 45.1 µM.
For Hyperoxide, the CC50 (BHK-21 cells) was > 100 µM.
With `NC(=O)c1ncn([C@@H]2O[C@H](CO)[C@@H](O)[C@H]2O)n1` [Ribavirin, reference compound] the CC50 (in vitro) was > 100 µM, the EC50 (FMDV; [1]) was 41.8 ± 1.58 µM and the EC50 (FMDV; [2]) was 133 ± 2.03 µM. The EC50 (FMDV; [3]) was 283.9 ± 2.3 µM.
For `CCOC(=O)/C=C/[C@H](C[C@@H]1CCNC1=O)NC(=O)[C@@H](CC(=O)[C@@H](NC(=O)c1cc(C)on1)C(C)C)Cc1ccc(F)cc1` [Rupintrivir, reference compound], the CC50 (in vitro) was > 100 µM, the “Fold increase of the FLuc over Renilla luciferase (Rluc) ratio” value (shortened to “Fold increase of the FLuc … (Rluc) ratio”) (FMDV 3C^pro) was 4.27 fold and the IC50 (FMDV 3C^pro) was 13.5 ± 0.19 µM. For the same compound, the EC50 (FMDV; [1]) was 1.99 ± 0.01 µM, the EC50 (FMDV; [2]) was 1.69 ± 0.19 µM and the EC50 (FMDV; [3]) was 11.8 ± 1.03 µM.
For `COc1ccc([C@@H]2CC(=O)c3c(O)cc(O[C@@H]4O[C@H](CO[C@@H]5O[C@@H](C)[C@H](O)[C@@H](O)[C@H]5O)[C@@H](O)[C@H](O)[C@H]4O)cc3O2)cc1O` [Hesperidin], the CC50 (BHK-21 cells) was > 100 µM.
For `O=C(/C=C/c1ccc(O)c2c1[C@H](C(=O)O)[C@@H](c1ccc(O)c(O)c1)O2)O[C@H](Cc1ccc(O)c(O)c1)C(=O)O` [Lithospermic acid], the CC50 (in vitro) was > 100 µM.
For `COc1ccc(-c2cc(=O)c3c(O)cc(O[C@@H]4O[C@H](CO[C@@H]5O[C@@H](C)[C@H](O)[C@@H](O)[C@H]5O)[C@@H](O)[C@H](O)[C@H]4O)cc3o2)cc1` [Linarin], the CC50 (BHK-21 cells) was > 100 µM.
In the case of `COc1ccc(-c2cc(=O)c3c(O)cc(O)c(-c4cc(-c5cc(=O)c6c(O)cc(O)cc6o5)ccc4OC)c3o2)cc1` [Isoginkgetin], the CC50 (in vitro) is reported as > 100 µM, the “Fold increase of the FLuc … (Rluc) ratio” value (FMDV 3C^pro) is reported as 2.65 fold and the IC50 (FMDV 3C^pro) is reported as 39.03 ± 0.05 µM. It also gave an EC50 (FMDV; [1]) of 2.01 ± 0.07 µM, an EC50 (FMDV; [2]) of 1.93 ± 0.21 µM and an EC50 (FMDV; [3]) of 6.76 ± 0.8 µM.
With `O=c1cc(-c2ccc(O)cc2)oc2cc(O)cc(O)c12` [Apigenin] the CC50 (in vitro) was 68.7 ± 4.1 µM, the IC50 (FMDV 3C^pro) was > 200 µM and the EC50 (FMDV; [1]) was 75 to 100 µM. The EC50 (FMDV; [2]) was 75 to 100 µM, the EC50 (FMDV; [3]) was > 100 µM and the EC50 (FMDV; [4]) was 75 to 100 µM.
For `O=C(O)[C@H]1O[C@@H](Oc2cc3oc(-c4ccccc4)cc(=O)c3c(O)c2O)[C@H](O)[C@@H](O)[C@@H]1O` [Baicalin], the CC50 (in vitro) was > 100 µM.
For `O=C(O[C@@H]1Cc2c(O)cc(O)cc2O[C@@H]1c1cc(O)c(O)c(O)c1)c1cc(O)c(O)c(O)c1` [EGCG], the CC50 (BHK-21 cells) was > 100 µM.
For `O=c1cc(-c2ccc(O)c(O)c2)oc2cc(O)cc(O)c12` [Luteolin], the CC50 (in vitro) was > 100 µM, the “Fold increase of the FLuc … (Rluc) ratio” value (FMDV 3C^pro) was 1.86 fold and the IC50 (FMDV 3C^pro) was 176.7 ± 0.05 µM. For the same compound, the EC50 (FMDV; [1]) was 9.73 ± 0.94 µM, the EC50 (FMDV; [2]) was 10 ± 0.98 µM and the EC50 (FMDV; [3]) was 25.8 ± 1.29 µM.
In the case of `C[C@@H]1O[C@@H](Oc2cc(O)c3c(=O)c(O)c(-c4ccc(O)c(O)c4)oc3c2)[C@H](O)[C@H](O)[C@H]1O` [Quercetin 7-rhamnoside], the IC50 (FMDV 3C^pro; read-out: IC50, cell-based protease assay) is reported as > 200 µM, the CC50 (BHK-21 cells) is reported as > 100 µM and the EC50 (FMDV; read-out: Post-Viral (EC50)) is reported as 75 to 100 µM. The EC50 (FMDV; read-out: Prophylaxis (EC50)) was > 100 µM and the EC50 (FMDV; read-out: Viral (EC50)) was > 100 µM.
`O=c1cc(-c2ccccc2)oc2cc(O[C@@H]3O[C@H](CO[C@@H]4O[C@H](CO)[C@@H](O)[C@H](O)[C@H]4O)[C@@H](O)[C@H](O)[C@H]3O)c(O)c(O)c12` [Oroxin B] showed a CC50 (BHK-21 cells) of 85.9 ± 7.4 µM.
For `COc1ccc(-c2cc(=O)c3c(O)cc(O[C@@H]4O[C@H](CO[C@@H]5O[C@@H](C)[C@H](O)[C@@H](O)[C@H]5O)[C@@H](O)[C@H](O)[C@H]4O)cc3o2)cc1O` [Diosmin], the CC50 (in vitro) was > 100 µM.
For `O=C(COc1cc(O)c2c(=O)cc(-c3ccccc3)oc2c1)c1ccc(F)cc1` [Kaempferol derivative, 7-[2-(4-Fluorophenyl)-2-oxoethoxy]-5-hydroxy-2-phenyl-4H-chromen-4-one], the CC50 (in vitro) was > 100 µM.
With Methyl Hesperidin,(S) the CC50 (BHK-21 cells) was > 100 µM.
For `O=C/C=C/c1ccccc1` [Cinnamaldehyde], the CC50 (in vitro) was > 100 µM.
With `COc1ccc(-c2coc3cc(O[C@@H]4O[C@H](CO)[C@@H](O)[C@H](O)[C@H]4O)ccc3c2=O)cc1O` [Calycosin 7-O-glucoside] the CC50 (BHK-21 cells) was > 100 µM.
For `COc1cc(O)c2c(=O)cc(-c3ccc(O)c(O)c3)oc2c1` [7-O-Methylluteolin], the CC50 (in vitro) was > 100 µM, the IC50 (FMDV 3C^pro) was > 200 µM and the EC50 (FMDV; [1]) was 75 to 100 µM. The EC50 (FMDV; [2]) was 75 to 100 µM, the EC50 (FMDV; [3]) was > 100 µM and the EC50 (FMDV; [4]) was 75 to 100 µM.
Compound Epicatechin-3-gallate has a CC50 (BHK-21 cells) of 77 ± 8.85 µM.
